The record followed here is patent publication US6352958B1, “Cycloimido-substituted benzofused heterocyclic herbicides” (FMC Corporation, priority 1997, dated 2002).

Holding throughout (format): in vivo
Test [1] deals with soybean (Glycine max var. Winchester). The test is described as follows: Postemergence herbicidal activity, soybean. The note with it: rate of application 0.3 Kg/Ha, rated after 12-17 days.
For test [2], the system named is green foxtail (Setaria viridis). The experiment in a line: Postemergence herbicidal activity, green foxtail. The settings on record: rate of application 0.3 Kg/Ha, rated after 12-17 days.
The test system of test [3] is velvetleaf (Abutilon theophrasti). The experiment in a line: Preemergence herbicidal activity, velvetleaf. The note with it: Rate of Application 0.3 Kg/Ha, examined after 12-17 days.
The test system of test [4] is wheat (Triticum aestivum var. Lew). The test is described as follows: Preemergence herbicidal activity, wheat. The note with it: Rate of Application 0.3 Kg/Ha, examined after 12-17 days.
Test [5] has as its system morningglory (Ipomea lacunosa or Ipomea hederacea). The test is described as follows: Preemergence herbicidal activity, morningglory. The settings on record: Rate of Application 0.3 Kg/Ha, examined after 12-17 days.
The subject of test [6] is velvetleaf (Abutilon theophrasti). The test is described as follows: Postemergence herbicidal activity, velvetleaf. The settings on record: rate of application 0.3 Kg/Ha, rated after 12-17 days.
For test [7], the system named is Johnsongrass (Sorghum halepense). The experiment in a line: Preemergence herbicidal activity, johnsongrass. The note with it: Rate of Application 0.3 Kg/Ha, examined after 12-17 days.
Test [8] deals with wheat (Triticum aestivum var. Lew). The test is described as follows: Postemergence herbicidal activity, wheat. The settings on record: rate of application 0.3 Kg/Ha, rated after 12-17 days.
Test [9] deals with common chickweed (Stellaria media). The experiment in a line: Postemergence herbicidal activity, chickweed. The settings on record: rate of application 0.3 Kg/Ha, rated after 12-17 days.
For test [10], the system named is common cocklebur (Xanthium strumarium L.). The experiment in a line: Preemergence herbicidal activity, cocklebur. The settings on record: Rate of Application 0.3 Kg/Ha, examined after 12-17 days.
In test [11] the test system is Johnsongrass (Sorghum halepense). The test is described as follows: Postemergence herbicidal activity, johnsongrass. The note with it: rate of application 0.3 Kg/Ha, rated after 12-17 days.
In test [12] the test system is field corn (Zea mays var. Pioneer 3732). The test is described as follows: Preemergence herbicidal activity, corn. The note with it: Rate of Application 0.3 Kg/Ha, examined after 12-17 days.
The test system of test [13] is common chickweed (Stellaria media). The test is described as follows: Preemergence herbicidal activity, chickweed. The note with it: Rate of Application 0.3 Kg/Ha, examined after 12-17 days.
The subject of test [14] is blackgrass (Aloepecurus myosuroides). The experiment in a line: Postemergence herbicidal activity, blackgrass. The settings on record: rate of application 0.3 Kg/Ha, rated after 12-17 days.
Test [15] has as its system soybean (Glycine max var. Winchester). The test is described as follows: Preemergence herbicidal activity, soybean. The settings on record: Rate of Application 0.3 Kg/Ha, examined after 12-17 days.
The subject of test [16] is blackgrass (Aloepecurus myosuroides). The test is described as follows: Preemergence herbicidal activity, blackgrass. The note with it: Rate of Application 0.3 Kg/Ha, examined after 12-17 days.
Test [17] relates to field corn (Zea mays var. Pioneer 3732). The test is described as follows: Postemergence herbicidal activity, corn. The note with it: rate of application 0.3 Kg/Ha, rated after 12-17 days.
Test [18] has as its system green foxtail (Setaria viridis). The experiment in a line: Preemergence herbicidal activity, green foxtail. The settings on record: Rate of Application 0.3 Kg/Ha, examined after 12-17 days.
Test [19] relates to common cocklebur (Xanthium strumarium L.). The experiment in a line: Postemergence herbicidal activity, cocklebur. The settings on record: rate of application 0.3 Kg/Ha, rated after 12-17 days.
Test [20] relates to morningglory (Ipomea lacunosa or Ipomea hederacea). The experiment in a line: Postemergence herbicidal activity, morningglory. The note with it: rate of application 0.3 Kg/Ha, rated after 12-17 days.

For the compound `Cn1c(C(F)(F)F)cc(=O)n(-c2c(F)cc(Br)c3oc(N)nc23)c1=O` [Compound 98], the “Postemergence herbicidal activity (% control) SOY” value in test [1] was 40%. Besides, the “Postemergence herbicidal activity (% control) SETVI” value in test [2] worked out at 40%. Also, the “PREEMERGENCE HERBICIDAL ACTIVITY (% CONTROL) ABUTH” value in test [3] turned out to be 80%. Further, the “PREEMERGENCE HERBICIDAL ACTIVITY (% CONTROL) WHT” value in test [4] was 40%. Moreover, the “PREEMERGENCE HERBICIDAL ACTIVITY (% CONTROL) IPOSS” value in [5] turned out to be 75%. The “Postemergence herbicidal activity (% control) ABUTH” value in test [6] is recorded as 60%. Moreover, the “PREEMERGENCE HERBICIDAL ACTIVITY (% CONTROL) SORHA” value in test [7] is recorded as 65%. Also, the “Postemergence herbicidal activity (% control) WHT” value in [8] came to 10%. Also, in test [9], the “Postemergence herbicidal activity (% control) STEME” value came to 5%. In addition, the “PREEMERGENCE HERBICIDAL ACTIVITY (% CONTROL) XANPE” value in test [10] was 60%. The “Postemergence herbicidal activity (% control) SORHA” value in [11] was determined as 20%. Also, in test [12], the “PREEMERGENCE HERBICIDAL ACTIVITY (% CONTROL) CRN” value is reported as 80%. For the same compound, in [13], the “PREEMERGENCE HERBICIDAL ACTIVITY (% CONTROL) STEME” value is given as 70%. In addition, the “Postemergence herbicidal activity (% control) ALOMY” value in [14] is recorded as 5%. Besides, the “PREEMERGENCE HERBICIDAL ACTIVITY (% CONTROL) SOY” value in [15] was 50%. Besides, the “PREEMERGENCE HERBICIDAL ACTIVITY (% CONTROL) ALOMY” value in test [16] is listed as 10%. In addition, in test [17], the “Postemergence herbicidal activity (% control) CRN” value was 50%. For the same compound, the “PREEMERGENCE HERBICIDAL ACTIVITY (% CONTROL) SETVI” value in test [18] came to 30%. The “Postemergence herbicidal activity (% control) XANPE” value in test [19] turned out to be 20%. Further, the “Postemergence herbicidal activity (% control) IPOSS” value in [20] was found to be 20%.

As for `Cn1c(C(F)(F)F)cc(=O)n(-c2c(F)cc(Br)c3oc(NS(C)(=O)=O)nc23)c1=O` [Compound 108], the “Postemergence herbicidal activity (% control) SOY” value in test [1] came to 50%. The “Postemergence herbicidal activity (% control) SETVI” value in test [2] is reported as 70%. For the same compound, the “PREEMERGENCE HERBICIDAL ACTIVITY (% CONTROL) ABUTH” value in test [3] worked out at 70%. The “PREEMERGENCE HERBICIDAL ACTIVITY (% CONTROL) WHT” value in [4] was found to be 0%. In addition, the “PREEMERGENCE HERBICIDAL ACTIVITY (% CONTROL) IPOSS” value in test [5] was determined as 50%. Also, in test [6], the “Postemergence herbicidal activity (% control) ABUTH” value was 20%. Moreover, the “PREEMERGENCE HERBICIDAL ACTIVITY (% CONTROL) SORHA” value in test [7] was found to be 30%. In addition, in test [8], the “Postemergence herbicidal activity (% control) WHT” value is given as 20%. Besides, the “Postemergence herbicidal activity (% control) STEME” value in [9] is given as 0%. Besides, in test [10], the “PREEMERGENCE HERBICIDAL ACTIVITY (% CONTROL) XANPE” value is reported as 10%. Besides, the “Postemergence herbicidal activity (% control) SORHA” value in test [11] is on record as 20%. Also, in [12], the “PREEMERGENCE HERBICIDAL ACTIVITY (% CONTROL) CRN” value came out at 10%. Further, the “PREEMERGENCE HERBICIDAL ACTIVITY (% CONTROL) STEME” value in [13] came to 40%. For the same compound, the “Postemergence herbicidal activity (% control) ALOMY” value in test [14] is on record as 10%. Besides, the “PREEMERGENCE HERBICIDAL ACTIVITY (% CONTROL) SOY” value in test [15] is recorded as 0%. The “PREEMERGENCE HERBICIDAL ACTIVITY (% CONTROL) ALOMY” value in [16] is 50%. Further, in test [17], the “Postemergence herbicidal activity (% control) CRN” value came to 60%. Besides, the “PREEMERGENCE HERBICIDAL ACTIVITY (% CONTROL) SETVI” value in test [18] came to 50%. In test [19], the “Postemergence herbicidal activity (% control) XANPE” value amounted to 10%. In addition, the “Postemergence herbicidal activity (% control) IPOSS” value in test [20] is reported as 60%.

With `Cc1nc2c(-n3c(=O)cc(C(F)(F)F)n(N)c3=O)c(F)cc(Cl)c2o1` [Compound 112], the “Postemergence herbicidal activity (% control) SOY” value in test [1] is on record as 100%. Also, in test [2], the “Postemergence herbicidal activity (% control) SETVI” value is given as 100%. Moreover, in [3], the “PREEMERGENCE HERBICIDAL ACTIVITY (% CONTROL) ABUTH” value is reported as 100%. Further, the “PREEMERGENCE HERBICIDAL ACTIVITY (% CONTROL) WHT” value in test [4] worked out at 100%. Besides, in test [5], the “PREEMERGENCE HERBICIDAL ACTIVITY (% CONTROL) IPOSS” value stood at 100%. The “Postemergence herbicidal activity (% control) ABUTH” value in [6] came out at 100%. For the same compound, in test [7], the “PREEMERGENCE HERBICIDAL ACTIVITY (% CONTROL) SORHA” value worked out at 100%. Also, the “Postemergence herbicidal activity (% control) WHT” value in test [8] is 100%. In test [9], the “Postemergence herbicidal activity (% control) STEME” value was 100%. The “PREEMERGENCE HERBICIDAL ACTIVITY (% CONTROL) XANPE” value in [10] was 100%. Further, in test [11], the “Postemergence herbicidal activity (% control) SORHA” value is 100%. For the same compound, in test [12], the “PREEMERGENCE HERBICIDAL ACTIVITY (% CONTROL) CRN” value was determined as 100%. For the same compound, the “PREEMERGENCE HERBICIDAL ACTIVITY (% CONTROL) STEME” value in test [13] stood at 100%. The “Postemergence herbicidal activity (% control) ALOMY” value in test [14] is 100%. Besides, the “PREEMERGENCE HERBICIDAL ACTIVITY (% CONTROL) SOY” value in test [15] was determined as 100%. The “PREEMERGENCE HERBICIDAL ACTIVITY (% CONTROL) ALOMY” value in test [16] was determined as 100%. Further, the “Postemergence herbicidal activity (% control) CRN” value in test [17] was determined as 100%. The “PREEMERGENCE HERBICIDAL ACTIVITY (% CONTROL) SETVI” value in test [18] was 100%. For the same compound, in test [19], the “Postemergence herbicidal activity (% control) XANPE” value was 100%. Further, the “Postemergence herbicidal activity (% control) IPOSS” value in test [20] is on record as 100%.
